Assay results from publication PMC6770469, “IDE Degrades Nociceptin/Orphanin FQ through an Insulin Regulated Mechanism” (International Journal of Molecular Sciences, 2019).
Where a SMILES comes first, the peptide text is derived from it. Where no end group is shown, it is not given here. [ ]: non-standard residue; d: D form. The star is where a group is joined. Sta = CC(C)C[C@H](N)[C@@H](O)CC(=O)O; Isovaleryl = CC(C)CC(=O)*

Columns and labels:
[1] = system: rat spinal cord peptidases; test: OFQ/N cleavage by rat spinal cord homogenate with peptidase inhibitors (MALDI-MS); type: biochemical; conditions: rat spinal cord extract, 20 mM Tris-HCl 1 mM EDTA pH 7.8, 37 °C, 30 min; for inhibition of the formation of the (1-11) fragment from OFQ/N: PHMB 0.25 mM, pepstatin A 0.01 mM (Figure 6); for inhibition of the cleavage of OFQ/N into the bioactive fragments (1-11), (1-7), (1-6): TPCK 1 mM, PMSF 1 mM, NEM 1 mM (Figure 6)
Experimental: Tissue homogenate preparation: One rat spinal cord tissue was homogenized in 1 mL of ice-cold 20 mM Tris-HCl (Sigma, Milan, Italy) and 1 mM EDTA (Sigma, Milan, Sigma) using mechanical homogenizer. The obtained homogenate was centrifuged at 5000× g for 15 min at 4 °C. The supernatant was then centrifuged at 20,000× g for 15 min at 4 °C. Finally, the supernatant was divided into small aliquots and kept frozen at −80 °C [13].
Tissue extract (supernatant) incubation assays: Incubations were performed using one microliter of tissue extract diluted with 19 µL of 20 mM Tris-HCl 1 mM EDTA buffer pH 7.8 and 10 µL of Milli-Q water. Then, the reaction was initiated by the addition of 10 µL of OFQ/N 0.3 mM and continued at 37 °C for 30 min. Then, 40 µL of ice-cold methanol was used to stop the reaction. Incubation was repeated as mentioned above but adding different peptidase inhibitors. The inhibitors used for the incubation were: TPCK (tosyl phenylalanyl chloromethyl ketone) 1 mM, PMSF (phenylmethylsulfonyl fluoride) 1 mM, NEM (N-ethylmaleimide) 1 mM, PHMB (4-(hydroxymercuri)benzoic acid) 0.25 mM, pepstatin A 0.01 mM, and Ag^+ 1 mM. Enzyme assay including spinal cord homogenate was also validated using dynorphin B, as described previously. One microliter aliquots taken from each incubation mixture were analyzed using MALDI mass spectrometry. α-Cyano-4-hydroxycinnamic acid (4-HCCA) was used as matrix, and the final samples were spotted onto AnchorChip™ plate (Bruker Daltonics, 2013). The standard used for the calibration of the instrument is the Peptide Calibration Standard II by Bruker Daltonics, Macerata, Italy. Details and parameters of the instrument set-up were: mass range: 340–4000 Da; detector gain/reflector: 6.3x (2480 V); sample rate and digitizer settings: 2.50 GS/s; smartbeam parameter set: 4_large; positive ion mode; matrix suppression: off; random walk: complete sample; shots at raster spot: 200; limit diameter to: 800 µm; laser power: 20%; shots: 5000.

[2] = system: mouse; conditions: cited from earlier work
[3] = target: T1, insulin-degrading enzyme (IDE) (Homo sapiens, UniProt P14735); test: IDE degradation assays (time-course hydrolysis of the substrate, UPLC-HRMS); type: in vitro ADME
T1 construct: purchased Giotto Biotech, Florence, Italy
T1 sequence (P14735 whole entry, species assumed): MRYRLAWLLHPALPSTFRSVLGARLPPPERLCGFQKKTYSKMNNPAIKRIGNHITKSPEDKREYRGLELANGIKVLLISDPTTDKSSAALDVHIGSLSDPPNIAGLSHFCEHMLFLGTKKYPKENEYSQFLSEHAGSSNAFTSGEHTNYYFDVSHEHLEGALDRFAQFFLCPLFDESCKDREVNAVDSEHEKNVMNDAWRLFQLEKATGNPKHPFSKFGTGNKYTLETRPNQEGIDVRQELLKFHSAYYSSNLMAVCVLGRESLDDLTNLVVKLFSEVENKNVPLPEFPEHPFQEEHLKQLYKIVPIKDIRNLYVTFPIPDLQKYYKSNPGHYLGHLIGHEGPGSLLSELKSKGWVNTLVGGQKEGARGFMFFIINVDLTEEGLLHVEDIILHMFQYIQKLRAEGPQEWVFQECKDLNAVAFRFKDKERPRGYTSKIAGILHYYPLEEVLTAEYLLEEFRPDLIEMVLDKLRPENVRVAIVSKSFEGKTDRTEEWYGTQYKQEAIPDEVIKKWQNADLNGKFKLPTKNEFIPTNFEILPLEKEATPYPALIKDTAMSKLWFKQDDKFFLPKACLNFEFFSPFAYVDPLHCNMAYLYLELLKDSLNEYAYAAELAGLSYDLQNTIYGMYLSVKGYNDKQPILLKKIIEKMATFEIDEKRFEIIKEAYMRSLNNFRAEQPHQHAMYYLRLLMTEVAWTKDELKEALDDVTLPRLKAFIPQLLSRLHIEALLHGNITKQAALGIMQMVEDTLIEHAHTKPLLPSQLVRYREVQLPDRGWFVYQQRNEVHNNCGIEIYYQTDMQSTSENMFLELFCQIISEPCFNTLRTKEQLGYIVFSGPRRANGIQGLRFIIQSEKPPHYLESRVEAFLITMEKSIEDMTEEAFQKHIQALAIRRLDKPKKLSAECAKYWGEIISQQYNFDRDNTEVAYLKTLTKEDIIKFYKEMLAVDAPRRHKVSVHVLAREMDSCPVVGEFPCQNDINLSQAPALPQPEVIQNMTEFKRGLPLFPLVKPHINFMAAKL
Experimental: IDE degradation assays: Insulin (Ins, 2 µM, purchased from Sigma, Milan, Italy) and nociceptin peptide (OFQ/N, 2 µM, synthesized by the Fmoc solid phase synthesis and purified in our laboratory using RP HPLC) were tested for their purity using electrospray mass spectrometry (over 98% purity), and hydrolyzed in the presence of insulin-degrading enzyme (IDE, 30 nM, purchased from Giotto Biotech, Florence, Italy) in phosphate buffer 1 mM (pH 7.4, Sigma). We applied 1-16 sequence of OFQ/N because there is no difference in binding of this fragment to NOP receptors. Ins and OFQ/N were hydrolyzed both separately and in a mixture. Moreover, a pre-incubation of OFQ/N with IDE for 20 min was also performed before the addition of Ins. In order to quench the reaction, the samples were diluted 1:1 with 1% TFA aqueous solution.
The peptide content of all samples was analyzed using a Q Exactive hybrid quadrupole-Orbitrap mass spectrometer (Thermo Scientific, Milan, Italy) coupled to an Ultimate 3000 HPLC RSLCnano system (Dionex Thermo Scientific, Milan, Italy) through an EASY-Spray source (Thermo Scientific, Milan, Italy) by using the instrument settings previously reported.

CC(C)CC(=O)N[C@H](C(=O)N[C@H](C(=O)N[C@@H](CC(C)C)[C@@H](O)CC(=O)N[C@@H](C)C(=O)N[C@@H](CC(C)C)[C@@H](O)CC(=O)O)C(C)C)C(C)C [Pepstatin A] (Isovaleryl-VV[Sta]A[Sta]-OH)
inhibition of the formation of the (1-11) fragment from OFQ/N [1]: slightly inhibits

Cc1ccc(S(=O)(=O)N[C@@H](Cc2ccccc2)C(=O)CCl)cc1 [TPCK, tosyl phenylalanyl chloromethyl ketone]
inhibition of the cleavage of OFQ/N into the bioactive fragments (1-11), (1-7), (1-6) [1]: not efficiently inhibited

(1-6): OFQ/N fragment (1-6), final product from (1-11) (FGGFTG; Nociceptin; UniProt Q13519 130-135, looked up, fragment)
effect in different analgesic tests (bi-phasic) ([2]; after ICV (Intracerebroventricular) and intrathecal injection, as reported in the literature): antinociception followed by a hyperalgesia

O=S(=O)(F)Cc1ccccc1 [PMSF, phenylmethylsulfonyl fluoride]
inhibition of the cleavage of OFQ/N into the bioactive fragments (1-11), (1-7), (1-6) [1]: not efficiently inhibited

FGGFTGARKSARKLAN [OFQ/N, Nociceptin/Orphanin 1-16]
time within which the substrate was almost completely degraded by IDE ([3]; OFQ/N 2 µM alone, IDE 30 nM, phosphate buffer 1 mM pH 7.4, 37 °C, LC-MS (Figure 3A)): ≤ 10 min | OFQ/N content as % of the original value ([3]; OFQ/N and Ins 1:1 molar ratio (2 µM each) co-incubated with IDE 30 nM, phosphate buffer 1 mM pH 7.4, 37 °C, 30 min reaction, LC-MS (Figure 3B)): 80% | content of OFQ/N, fold lower than its starting value ([3]; after 20 min pre-incubation of OFQ/N 2 µM with IDE 30 nM at 37 °C, before addition of Ins, phosphate buffer 1 mM pH 7.4, LC-MS (Figure 4A)): 5 fold

O=C(O)c1cc[c]([Hg][OH])cc1 [PHMB, 4-(hydroxymercuri)benzoic acid]
inhibition of the formation of (1-7) and (1-6) from OFQ/N ([1]; PHMB 0.25 mM (Figure 6)): inhibits | inhibition of the formation of the (1-11) fragment from OFQ/N [1]: blocks the formation of the (1-11)fragment more than all the other inhibitors

CCN1C(=O)C=CC1=O [NEM, N-ethylmaleimide]
inhibition of the cleavage of OFQ/N into the bioactive fragments (1-11), (1-7), (1-6) [1]: does not show inhibition

(1-7): OFQ/N fragment (1-7), bioactive shorter sequence (FGGFTGA; Nociceptin; UniProt Q13519 130-136, looked up, fragment)
effect on hyperalgesia induced by OFQ/N ([2]; injected in mice): blocks hyperalgesia
